The source of these data is patent US12502391B2, “Multi-kinase inhibitors of VEGF and TGF beta and uses thereof” (AIVIVA BIOPHARMA, INC., priority 2018, dated 2025).

“And” between values parts separate entries of the source, which are not always exact repeats. Identical values can stand only once. Counter-ions that a name gives are not always drawn.

Data set [1] relates to benign prostate hyperplasia. Briefly: Testosterone and phenylephrine induced benign prostate hyperplasia in rats. Also noted: key to epithelial hyperplasia score, dorsolateral prostate, representative image / epithelial hyperplasia score, ventral prostate, representative image: severity grade 0 = not present to 5 = severe. The format is in vivo, Wistar rats. How it is done: BPH is a true hyperplastic process. Histologic studies have documented an increase in cell number. A study was conducted, therefore, to determine the effects of test compounds and vehicle on testosterone (TE) and phenylephrine (PE) induced benign prostate hyperplasia in rats. Male Wistar rats were induced with testosterone (2 mg/kg) plus phenylephrine (5 mg/kg) administered daily by subcutaneous injection on days 5 through 32. Vehicle or test compounds (all at 1% w/w), nintedanib, sunitinib, lenvatinib, and 0.5% doxazosin mesylate, were administered by intra-prostate injection (0.4 ml) in dorsolateral and ventral lobes on days 1 and 18. Animals were euthanized on day 32. Body weights were determined and prostate glands were harvested. The experimental design is outlined in Table 6.
At necropsy, the ventral and dorsolateral lobes of the prostate were separated and then cut into halves. The left halves were fixed in 10% neutral buffered formalin, sectioned, and stained with Hematoxylin and Eosin (H&E). Histological changes in these sections were scored. Epithelial hyperplasia was recognized as an increase in epithelial cells within normal-appearing gland profiles, primarily reflected by stratification of epithelial cells and increased presence of epithelial tufting and papillary projections. A severity grade of 0 (not present) through 5 (severe) was assigned to each sample.

For the next data set, the system named is TGF-β1 mRNA. Briefly: TGF-β1 mRNA expression (qRT-PCR) in Yucatan pig skin wound sites. The class given is in vivo, Yucatan minipigs. The settings on record: Yucatan pig skin wound sites after treatments; for TGF-β1 mRNA Expression Fold Relative to Untreated Unwounded Control: individual animals 7369, 7370, 7371, duplicate sets 1 and 2, beta actin reference gene. The text has this: (§1) In this experiment, multiple full-thickness excision wounds were made to the dorsum of Yucatan minipigs, and the wound sites were allowed to be re-epithelialized adequately. At four weeks post-wound, the wound sites had normal to pink vascularity and had pliability. Epidermal hyperplasia was observed, as expected for regenerative responses in the full-thickness wounds.
(§2) On Day 28 post-wound, a dose (e.g., 1%) of axitinib, nintedanib, riociguat, sorafenib, sunitinib, and/or lenvatinib was administered into the dermal tissue at or around the wound sites, once every two weeks on two occasions. One wound site was left untreated as the control for each pig. Please note that the particular parameters in this example are only for illustration. One skilled in the art would appreciate that the dosages, administration methods, treatment regimen, and the administration sites may be varied to achieve similar results.
In addition, total mRNA was isolated from skin biopsies of the treated wound sites and the untreated unwounded sites of the pigs. The mRNA samples were used to prepare cDNA and analyzed via qRT-PCR. The TGF-β1 expression levels were assessed using beta actin as a reference gene.
In general terms: In qPCR the cycle at which signal appears reflects the starting amount.

For data set [2], the system named is full-thickness excision wounds. The data set is described as follows: Histology of full-thickness excision wounds in Yucatan minipigs (fibroplasia, neovascularization). The class given is in vivo. The following applies: Yucatan minipig wound sites after two doses, Day 59, scale 1 (minimal) to 5 (severe); for Neovascularization; dermis, average score: untreated 2.33; for Fibroplasia; dermis, average score: untreated 3.33.
Source text: as §1, §2
On Day 59 post wound, the minipigs were sacrificed and dermal tissues were collected for qualitative and quantitative evaluation using hematoxylin and eosin, and Mason's Trichrome staining. Dermal fibroplasia was characterized by increased numbers of fibroblasts in the dermis suspended in variable amounts of collagen in wounds.

Data set [3] relates to rabbit ear hypertrophic scar. The data set is described as follows: Histopathology of rabbit ear wounds (neovascularization, fibrosis, re-epithelization). The settings on record: rabbit ear wound, intradermal dosing of 1 wt. %. Also noted: key to Total Score, Treated Mean: aggregate of neovascularization, fibrosis, re-epithelization grades; key to Neovascularization score, Treated Mean / Fibrosis/Collagen score, Treated Mean / Re-epithelization score, Treated Mean: five-step severity grade: minimal, mild, moderate, marked, severe. The class given is in vivo, New Zealand white rabbits. How it is done:
In New Zealand white rabbits, maintained under a surgical plane of anesthesia, trauma stimulation of the skin on the ventral surface of both ears is initiated on Day 1. Trauma sites are evaluated on Days 8, 15, 22, 29, 36, and 43. On days 15 and 29, each site is dosed with test compounds (e.g., 1% w/w, 100 μl) by intradermal or intralesional injections.
At necropsy, each treatment site was harvested and preserved for hematoxylin and […] and Mason's trichrome stainings. Each lesion was examined histologically and graded for neovascularization, fibrosis and re-epithelization using a five-step/severity grading system (minimal, mild, moderate, marked, and severe). The average total score is an aggregation of these microscopic findings relating to an inflammatory response.

The next data set concerns subconjunctival scarring. Briefly: Bleb survival after glaucoma filtration surgery in rabbit eyes. The class given is in vivo, rabbits. How it is done: In order to investigate the anti-scarring effect of topically applied test compounds following ocular surgeries, glaucoma filtration surgery was performed on rabbit eyes. Postoperative subconjunctival wound healing is a major cause of late bleb failure after glaucoma filtration surgery in humans. Select multikinase inhibitors were tested for effect on bleb survival over time. Inhibition of subconjunctival fibrosis following surgery will improve bleb survival. Vehicle was used as a negative control and pirfenidone was used a positive control.
A scleral tract was created in the left eyes superiorally by tunneling a beveled 22-gauge intravenous cannula through the sclera, beginning behind the limbus and continuing until the cannula is visible in the anterior chamber. The cannula was flushed with sodium heparin (1000 units) prior to placement. The cannula needle was withdrawn and the cannula advanced beyond the pupillary margin to prevent iris blockage of the tube. The cannula was trimmed approximately 2 mm and secured to the sclera using suture. Both the Tenon's and the conjunctiva were sutured with 9-0 Prolene. Six rabbits were used per group and the left eye of each rabbit underwent glaucoma filtration surgery. The treatment groups include vehicle control, pirfenidone (1%, w/v) as a positive control, sorafenib (0.3%, w/v), and lenvatinib (0.3%, w/v). Eyedrops (35 uL) were topically applied to the eyes following surgery three times day for 30 days. All animals were sacrificed on Day 30.
Bleb was monitored throughout the study. Bleb volumes were measured with the use of calibrated calipers. […] There were differences noted between groups at Day 7, and the majority of blebs were gone by Day 14 through Day 30 indicating bleb failure due to subconjunctival scarring. Results of the vehicle and pirfenidone groups were similar to those reported in the literature (Zhong H et al., Invest Ophthalmol Vis Sci, 52: 3136-3142, 2011).

For data set [4], the system named is suture-induced ocular fibrosis. The data set is described as follows: Rabbit corneal suture-induced ocular fibrosis model. The class given is in vivo, rabbits. The settings on record: topical three times daily, 10-day observation period. From the text:
In order to investigate the anti-fibrotic effect of test compounds following wounding in the eye, a suture-induced ocular fibrosis model was used. Suture was placed intrastromally under a microscope in the cornea of rabbits. In each eye, one 9.0 silk suture was placed, in a vertical position, temporal to the corneal center and a second suture was placed nasal to the corneal center. Each suture had two stromal incursions approximately 2 mm from the limbus. Test compounds having certain spectrum of multikinase inhibition activities and/or vehicle were topically instilled (35 uL/eye) in the eyes three times daily for 10 days the day following surgery. The treatment groups include vehicle, nintedanib (0.3%, w/v), pirfenidone (1%, w/v), riociguat (0.3%, w/v), sorafenib (0.3%, w/v) and lenvatinib (0.3%, w/v). Six left eyes were used per treatment group.
The animals were sacrificed on Day 11 and the eyes enucleated and dissected for histopathological evaluation.

Where [5] appears, read: TE and PE induced rats, intra-prostate injection 0.4 ml on days 1 and 18 (1% w/w; doxazosin mesylate 0.5%), severity grade 0 (not present) through 5 (severe), induced vehicle score=4.
Where [6] appears, read: five-step severity grading (minimal to severe).

For `COc1cc2nc(N3CCN(C(=O)C4COc5ccccc5O4)CC3)nc(N)c2cc1OC` (centres unmarked) [doxazosin, doxazosin mesylate], in data set [1] (setting [5]), the “epithelial hyperplasia score, dorsolateral prostate, representative image” value is recorded as 3 and the “epithelial hyperplasia score, ventral prostate, representative image” value was determined as 3. For the same compound, in data set [1] (TE and PE induced rats, intra-prostate injection on days 1 and 18), the “glandular hyperplasia compared to untreated TE/PE induced prostates” value is “demonstrated reduction of glandular hyperplasia”.

In the case of `CCN(CC)CCNC(=O)c1c(C)[nH]c(/C=C2\C(=O)Nc3ccc(F)cc32)c1C` [sunitinib], the “TGF-β1 mRNA Expression Fold Relative to Untreated Unwounded Control” value with TGF-β1 mRNA is 0.50 fold and 0.53 fold and 0.48 fold and 0.45 fold and 0.64 fold and 1.86 fold. Moreover, the “epithelial hyperplasia score, ventral prostate, representative image” value in data set [1] (1 % strength) worked out at 3. Moreover, the “epithelial hyperplasia score, dorsolateral prostate, representative image” value in data set [1] (setting [5]) was 3. In data set [2], the “Neovascularization; dermis, average score” value (from here on “Neovascularization; dermis”) is on record as “(2.33)” and the “Fibroplasia; dermis, average score” value was “(2.67)”.

Turning to `CNC(=O)c1ccccc1Sc1ccc2c(/C=C/c3ccccn3)n[nH]c2c1` [axitinib], in the data set on TGF-β1 mRNA, the “TGF-β1 mRNA Expression Fold Relative to Untreated Unwounded Control” value was 0.89 fold and 0.68 fold (2×) and 0.64 fold and 0.37 fold and 0.78 fold. For the same compound, the “average total score of test wounds, fold lower than untreated wounds” value in data set [3] is listed as “about 1.3 fold”. For the same compound, the “Total Score, Treated Mean” value in data set [3] (aggregation of microscopic findings) was 4.6. In data set [3] (setting [6]), the “Fibrosis/Collagen score, Treated Mean” value is recorded as 3.3; the “Neovascularization score, Treated Mean” value turned out to be 1; the “Re-epithelization score, Treated Mean” value came to 0.3. Moreover, in data set [2], the “Neovascularization; dermis” value is listed as “(1.67)” and the “Fibroplasia; dermis, average score” value is “(2.33)”.

With `Cc1ccc(=O)n(-c2ccccc2)c1` [pirfenidone], the “bleb survival on Day 7” value in the data set on subconjunctival scarring (eyedrops 35 uL three times a day, pirfenidone 1% w/v, lenvatinib 0.3% w/v, compared to vehicle and sorafenib groups) was “kept bleb survival on Day 7”. The “bleb remaining / bleb failure on Day 30” value with subconjunctival scarring (eyedrops three times a day for 30 days, 6 animals per group) is recorded as “demonstrated bleb failure”.

Take `COC(=O)N(C)c1c(N)nc(-c2nn(Cc3ccccc3F)c3ncccc23)nc1N` [riociguat]: in the data set with TGF-β1 mRNA, the “reduction of TGF-β1 mRNA expression levels at treated wounds” value is “most effective”; the “TGF-β1 mRNA Expression Fold Relative to Untreated Unwounded Control” value is 0.60 fold and 0.76 fold and 0.87 fold and 0.39 fold and 0.49 fold and 0.8 fold. Also, in data set [2], the “Neovascularization; dermis” value was “(2.67)” and the “Fibroplasia; dermis, average score” value is on record as “(2.67)”. In data set [4], the “gross ocular observations: conjunctival congestion and swelling” value was “slightly more severe reaction”.
